Nine compounds from BindingDB's records for doi:10.1016/j.bmc.2006.07.028 (University of Florence, 2006) can be followed below.

For assay [1], the target named is T1, Macrophage metalloelastase (Homo sapiens, UniProt P39900). As to the kind of experiment: Dissociation Constants (KD) Measurements and Enzyme Inhibition Assay (IC50). To be noted: pH 7; 25 °C. As for the experimental part:
The NMR experiments were performed to determine the binding affinity (KD) for the MMP-12 catalytic domain. The alteration of the chemical shifts induced on 2D 1H-15N HSQC upon the titration with the test compound was analyzed. The fit of the experimental data as a function of ligand concentration provided dissociation constant. The inhibition potency (IC50) was measured by fluorescent enzymatic assays. The compounds were evaluated for their ability to inhibit the hydrolysis of fluorescence-quenched peptide substrate. […] Fitting of hydrolysis rate as a function of inhibitor concentration provided IC50.

Assay [2] deals with T1, Macrophage metalloelastase. Briefly: Dissociation Constants (KD) Measurements. The settings on record: pH 7.2; 25 °C. How it is done:
The NMR experiments were performed to determine the binding affinity (KD) for the MMP-12 catalytic domain. The alteration of the chemical shifts induced on 2D 1H-15N HSQC upon the titration with the test compound was analyzed. The fit of the experimental data as a function of ligand concentration provided dissociation constant.

Another assay concerns the target Collagenase 3 (Homo sapiens, UniProt P45452). As to the kind of experiment: Inhibition Potency Measurements. The settings on record: pH 7; 25 °C. How it is done:
(§1) The inhibition potency (IC50) was measured by fluorescent enzymatic assays. The compounds were evaluated for their ability to inhibit the hydrolysis of fluorescence-quenched peptide substrate. […] Fitting of hydrolysis rate as a function of inhibitor concentration provided IC50.

A further assay has as its target T2, Interstitial collagenase (Homo sapiens, UniProt P03956).
T2 sequence (P03956 whole entry): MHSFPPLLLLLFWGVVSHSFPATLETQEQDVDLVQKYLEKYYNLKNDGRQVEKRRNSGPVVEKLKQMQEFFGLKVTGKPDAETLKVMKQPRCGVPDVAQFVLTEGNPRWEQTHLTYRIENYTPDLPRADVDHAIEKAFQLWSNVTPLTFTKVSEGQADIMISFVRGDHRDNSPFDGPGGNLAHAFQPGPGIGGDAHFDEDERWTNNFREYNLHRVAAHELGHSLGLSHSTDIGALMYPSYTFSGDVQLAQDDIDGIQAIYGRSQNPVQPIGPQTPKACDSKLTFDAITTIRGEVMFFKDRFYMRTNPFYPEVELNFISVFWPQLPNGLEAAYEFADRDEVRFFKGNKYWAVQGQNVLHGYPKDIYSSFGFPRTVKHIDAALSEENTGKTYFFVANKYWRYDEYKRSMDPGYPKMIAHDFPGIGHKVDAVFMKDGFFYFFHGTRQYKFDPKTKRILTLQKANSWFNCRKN
As to the kind of experiment: Inhibition Potency Measurements. To be noted: pH 7; 25 °C. As for the experimental part: as §1

A further assay addresses T3, Matrilysin (Homo sapiens, UniProt P09237).
T3 sequence (P09237 whole entry): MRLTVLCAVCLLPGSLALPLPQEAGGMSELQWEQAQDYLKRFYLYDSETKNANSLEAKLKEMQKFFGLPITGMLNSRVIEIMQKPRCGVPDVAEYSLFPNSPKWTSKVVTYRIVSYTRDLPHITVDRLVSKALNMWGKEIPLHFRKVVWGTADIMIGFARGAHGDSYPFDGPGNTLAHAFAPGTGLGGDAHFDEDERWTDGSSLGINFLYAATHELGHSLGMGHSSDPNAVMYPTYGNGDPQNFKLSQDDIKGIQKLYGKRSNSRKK
As to the kind of experiment: Inhibition Potency Measurements. To be noted: pH 7; 25 °C. As for the experimental part:
as §1

A further assay has as its target Neutrophil collagenase (Homo sapiens, UniProt P22894). Briefly: Inhibition Potency Measurements. To be noted: pH 7; 25 °C. How it is done: as §1
The target in a further assay is Stromelysin-2 (Homo sapiens, UniProt P09238). As to the kind of experiment: Inhibition Potency Measurements. To be noted: pH 7; 25 °C. As for the experimental part:
as §1

T1 sequence (P39900 whole entry, the tested form may be a part): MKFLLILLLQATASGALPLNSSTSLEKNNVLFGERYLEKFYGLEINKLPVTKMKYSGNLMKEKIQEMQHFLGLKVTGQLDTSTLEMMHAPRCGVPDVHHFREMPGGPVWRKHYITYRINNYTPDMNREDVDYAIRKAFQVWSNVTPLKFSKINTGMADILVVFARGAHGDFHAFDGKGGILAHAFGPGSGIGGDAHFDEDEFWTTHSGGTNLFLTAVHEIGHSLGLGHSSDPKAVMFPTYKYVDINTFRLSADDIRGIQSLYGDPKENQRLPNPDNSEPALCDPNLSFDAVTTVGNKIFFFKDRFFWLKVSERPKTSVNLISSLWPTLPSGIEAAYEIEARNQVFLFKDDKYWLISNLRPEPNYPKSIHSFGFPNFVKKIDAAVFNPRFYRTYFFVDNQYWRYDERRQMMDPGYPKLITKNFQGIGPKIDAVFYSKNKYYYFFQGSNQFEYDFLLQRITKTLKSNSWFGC
Chain of Neutrophil collagenase (P22894 whole entry): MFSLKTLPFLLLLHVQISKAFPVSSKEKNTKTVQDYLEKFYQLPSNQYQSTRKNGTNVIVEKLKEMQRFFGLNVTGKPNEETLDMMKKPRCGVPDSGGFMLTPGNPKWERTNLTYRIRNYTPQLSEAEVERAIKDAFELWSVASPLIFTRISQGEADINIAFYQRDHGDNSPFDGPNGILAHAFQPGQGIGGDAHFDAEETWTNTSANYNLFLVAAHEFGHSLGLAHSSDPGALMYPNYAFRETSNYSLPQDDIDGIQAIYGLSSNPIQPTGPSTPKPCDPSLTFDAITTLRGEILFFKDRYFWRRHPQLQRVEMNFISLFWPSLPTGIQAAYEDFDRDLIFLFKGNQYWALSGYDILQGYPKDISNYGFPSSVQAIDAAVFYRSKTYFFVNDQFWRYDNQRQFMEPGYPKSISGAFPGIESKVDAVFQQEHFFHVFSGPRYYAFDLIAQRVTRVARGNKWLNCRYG
Chain of Stromelysin-2 (P09238 whole entry): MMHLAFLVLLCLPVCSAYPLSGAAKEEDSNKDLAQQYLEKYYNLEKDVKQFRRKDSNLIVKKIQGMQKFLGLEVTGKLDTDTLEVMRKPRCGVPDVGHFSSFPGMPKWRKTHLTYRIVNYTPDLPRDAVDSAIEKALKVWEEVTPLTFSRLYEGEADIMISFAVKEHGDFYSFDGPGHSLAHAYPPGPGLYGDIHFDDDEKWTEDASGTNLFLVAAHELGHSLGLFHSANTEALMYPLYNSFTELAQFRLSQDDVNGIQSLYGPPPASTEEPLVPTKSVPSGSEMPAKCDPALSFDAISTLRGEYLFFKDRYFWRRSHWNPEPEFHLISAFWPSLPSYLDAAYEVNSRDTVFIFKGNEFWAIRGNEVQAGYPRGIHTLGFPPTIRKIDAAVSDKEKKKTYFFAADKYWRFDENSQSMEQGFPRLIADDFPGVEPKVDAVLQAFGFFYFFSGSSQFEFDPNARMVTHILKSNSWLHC

On to `O=C(O)[C@@H]1O[C@H]2CN(Cc3ccc(-c4ccccc4)cc3)C(=O)[C@@H]1O2` [(1R,5S,7R)-2-oxo-3-[(4-phenylphenyl)methyl]-6,8-dioxa-3-azabicyclo[3.2.1]octane-7-carboxylic acid], for which, in assay [1], it took 954 µM to reach half-maximal inhibition (IC50) and the Kd (usually a measure of binding affinity in units of concentration) was more than 1000 µM.

On to `O=C(O)[C@@H]1O[C@H]2CN(Cc3ccccc3)C(=O)[C@@H]1O2` [(1R,5S,7R)-3-benzyl-2-oxo-6,8-dioxa-3-azabicyclo[3.2.1]octane-7-carboxylic acid], for which the Kd in assay [2] is more than 10000 µM.

The compound `O=C(NO)[C@@H]1O[C@H]2CN(Cc3ccccc3)C(=O)[C@@H]1O2` [(1R,5S,7R)-3-benzyl-N-hydroxy-2-oxo-6,8-dioxa-3-azabicyclo[3.2.1]octane-7-carboxamide] gave a Kd in assay [2] of more than 10000 µM.

For `O=C(NO)[C@@H]1O[C@H]2CN(Cc3ccc(-c4ccccc4)cc3)C(=O)[C@@H]1O2` [(1R,5S,7R)-N-hydroxy-2-oxo-3-[(4-phenylphenyl)methyl]-6,8-dioxa-3-azabicyclo[3.2.1]octane-7-carboxamide], in assay [1], the IC50 (as a rule, the point on the concentration scale where inhibition reaches its midpoint) turned out to be 425 µM and the Kd was more than 500 µM.

Turning to `O=C(NCc1ccc(-c2ccccc2)cc1)[C@@H]1O[C@H]2CN(C(=O)NO)C[C@@H]1O2` [(1S,5S,7R)-3-N-hydroxy-7-N-[(4-phenylphenyl)methyl]-6,8-dioxa-3-azabicyclo[3.2.1]octane-3,7-dicarboxamide], the IC50 at Collagenase 3 was 778 µM; at Interstitial collagenase it was 1180 µM; at Matrilysin it was 1510 µM; against Neutrophil collagenase, 513 µM; against Stromelysin-2, 865 µM.

As to `O=C(O)[C@@H]1O[C@H]2CN(Cc3ccc(-c4ccccc4)cc3)C[C@@H]1O2` [(1S,5S,7R)-3-[(4-phenylphenyl)methyl]-6,8-dioxa-3-azabicyclo[3.2.1]octane-7-carboxylic acid], in assay [1], the IC50 was 835 µM and the Kd was more than 1000 µM.

The compound `O=C(O)[C@@H]1O[C@H]2CN(Cc3ccccc3)C[C@@H]1O2` [(1S,5S,7R)-3-benzyl-6,8-dioxa-3-azabicyclo[3.2.1]octane-7-carboxylic acid] yielded a Kd in assay [2] of more than 10000 µM.

With `O=C(NO)[C@@H]1O[C@H]2CN(Cc3ccc(-c4ccccc4)cc3)C[C@@H]1O2` [(1S,5S,7R)-N-hydroxy-3-[(4-phenylphenyl)methyl]-6,8-dioxa-3-azabicyclo[3.2.1]octane-7-carboxamide], in assay [1], the IC50 came out at 399 µM and the Kd is more than 500 µM.

In assay [2], `CCOC(=O)C1CCN(C(=O)NO)CC1` [ethyl 1-(hydroxycarbamoyl)piperidine-4-carboxylate] had a Kd of 3400 µM.
